The results in this text go back to ChEMBL document CHEMBL1201862, “PubChem BioAssay data set” (2004).

Broadly, the GI50 is the concentration at which growth is held to half of that of the control.

The structures appear in SMILES notation.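 Results reflect a 48-hour exposure of cells in 96-well plates to compound at five concentrations. Here, GI50 denotes the concentration required for 50% inhibition of growth.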 Active and inactive are the calls of the source. No stated cut-off is given here; in the data, active = GI50 up to about 1.1 µM and inactive = higher.

Some test systems named below: KM12; M14; Malme-3M; NCI-H460; SNB-75; OVCAR-4; SF-295; A549; HL-60; HOP-92; HOP-62; UO-31; SW-620; RXF 393; SF-539; SNB-19; NCI-H522; OVCAR-8.
What all share (assay): DTP human tumour cell line panel, 48 h

Consider `CCN(CC)c1ccc(C(=C2C=CC(=[N+](CC)CC)C=C2)c2ccccc2)cc1`, for which the GI50 in the experiment on KM12 was 0.0324 µM (active); in the experiment with M14, 0.0163 µM (active); in the experiment with Malme-3M it was 0.0304 µM (active); with NCI-H460, 0.0231 µM (active); with SNB-75 it was 0.0586 µM (active); with OVCAR-4, 0.0353 µM (active). Besides, the concentration for 50% growth inhibition (GI50) is 0.0248 µM (active) in the experiment with SF-295; 0.0348 µM (active) with A549; < 0.01 µM (active) with HL-60; 0.0338 µM (active) in the experiment with HOP-92; 0.102 µM (active) in the experiment with HOP-62; 0.0366 µM (active) with UO-31. Besides, the GI50 was 0.0291 µM (active) in the experiment with SW-620; 0.022 µM (active) in the experiment with RXF 393; 0.0462 µM (active) in the experiment with SF-539; 0.043 µM (active) in the experiment on SNB-19; 0.0177 µM (active) with NCI-H522.
For the compound `c1ccc2c3nc(C4CCCC4)nc-3c(NC3CCCC3)[nH]c2c1`, the GI50 in the experiment with KM12 was 7.08 µM (inactive); with M14, 2.98 µM (inactive); in the experiment with Malme-3M, 16.6 µM (inactive); in the experiment on NCI-H460, 8.04 µM (inactive); in the experiment with SNB-75, 66.1 µM (inactive); in the experiment with OVCAR-4 it was 14.4 µM (inactive). Moreover, the GI50 was 6.87 µM (inactive) with OVCAR-8; 16.8 µM (inactive) with SF-295; 21 µM (inactive) with A549; 2.3 µM (inactive) in the experiment on HL-60; 19.3 µM (inactive) in the experiment on HOP-92; 19.1 µM (inactive) in the experiment on HOP-62. Moreover, the GI50 in the experiment with UO-31 was 21.6 µM (inactive); with SW-620, 5.43 µM (inactive); with RXF 393, 14.7 µM (inactive); with SF-539, 15.3 µM (inactive); in the experiment with SNB-19, 45.1 µM (inactive); with NCI-H522, 18.4 µM (inactive).
Consider `O=c1c2cc3ccccc3n2c(=O)c2cc3ccccc3n12`, for which the GI50 is 89.5 µM (inactive) with KM12; > 100 µM (inactive) with M14; > 100 µM (inactive) in the experiment with Malme-3M; > 100 µM (inactive) in the experiment with NCI-H460; > 100 µM (inactive) in the experiment with SNB-75; > 100 µM (inactive) with OVCAR-4. Moreover, the GI50 in the experiment with OVCAR-8, in the experiment on SF-295, with A549, in the experiment on HL-60, in the experiment on HOP-92 and with UO-31 was > 100 µM (inactive) throughout. In addition, the GI50 with SW-620, in the experiment with RXF 393, with SF-539, in the experiment on SNB-19 and in the experiment with NCI-H522 was > 100 µM (inactive) in each case.
`CC(C)N(O)C(=N)c1ccccc1`: the GI50 was > 100 µM (inactive) in the experiment with KM12; > 100 µM (inactive) in the experiment on M14; > 10 µM (inactive) in the experiment on Malme-3M; > 100 µM (inactive) with NCI-H460; > 100 µM (inactive) in the experiment with SNB-75; > 100 µM (inactive) with OVCAR-4. Also, the GI50 with OVCAR-8, in the experiment on SF-295, with A549, with HL-60, in the experiment on HOP-92 and with HOP-62 was > 100 µM (inactive) in each case. Besides, the GI50 with UO-31, in the experiment with SW-620, in the experiment on RXF 393, in the experiment with SF-539, with SNB-19 and with NCI-H522 was > 100 µM (inactive) each time.
Take `O=P(c1ccccc1)(c1ccccc1)C1CC=C2CCCCCC2C1` (stereo unspecified): the GI50 in the experiment on KM12 is 38.5 µM (inactive); in the experiment with M14, 21.8 µM (inactive); in the experiment on Malme-3M it was 38.9 µM (inactive); with NCI-H460, 32.7 µM (inactive); with SNB-75, 25.1 µM (inactive); in the experiment with OVCAR-4, 26.2 µM (inactive). Also, the GI50 is 31 µM (inactive) in the experiment with OVCAR-8; 41.3 µM (inactive) with SF-295; > 10 µM (inactive) in the experiment on A549; 27.2 µM (inactive) in the experiment on HL-60; 11 µM (inactive) with HOP-92; 21.8 µM (inactive) in the experiment on UO-31. In addition, the GI50 with SW-620 is > 10 µM (inactive); with RXF 393, 28.8 µM (inactive); in the experiment with SF-539, > 10 µM (inactive); with SNB-19, 27.6 µM (inactive); in the experiment with NCI-H522, 17.2 µM (inactive).
As to `O=c1c2cc(Br)ccc2[nH]c(=S)n1-c1ccc(Br)cc1`, the GI50 in the experiment with KM12 was > 100 µM (inactive); in the experiment on Malme-3M, > 100 µM (inactive); in the experiment on NCI-H460, 82.8 µM (inactive); with SNB-75, 12.1 µM (inactive); in the experiment on OVCAR-4, 76.4 µM (inactive); in the experiment with OVCAR-8, 31 µM (inactive). Also, the GI50 is 45.5 µM (inactive) in the experiment with SF-295; > 100 µM (inactive) with A549; > 100 µM (inactive) in the experiment with HL-60; 23 µM (inactive) with HOP-92; 67.6 µM (inactive) with HOP-62; > 100 µM (inactive) in the experiment on UO-31. For the same compound, the GI50 with SW-620 is > 100 µM (inactive); in the experiment with RXF 393, > 100 µM (inactive); in the experiment with SF-539, 97.1 µM (inactive); in the experiment on SNB-19, 47.9 µM (inactive); in the experiment with NCI-H522, > 100 µM (inactive).
Turning to `CC1(C)OC(=O)C(=C2CCC(C(=O)Nc3cccc(C(F)(F)F)c3)N2)C(=O)O1` (stereo unspecified), the GI50 in the experiment with KM12 was 60.3 µM (inactive); in the experiment on M14, 64 µM (inactive); in the experiment on Malme-3M, 50.1 µM (inactive); in the experiment with NCI-H460, 62.5 µM (inactive); with SNB-75 it was > 100 µM (inactive); with OVCAR-4 it was 61.4 µM (inactive). For the same compound, the GI50 is > 100 µM (inactive) with OVCAR-8; 75.5 µM (inactive) in the experiment with SF-295; > 100 µM (inactive) in the experiment with A549; 67.8 µM (inactive) in the experiment on HL-60; 56.2 µM (inactive) in the experiment with HOP-92; > 100 µM (inactive) in the experiment on HOP-62. Further, the GI50 is > 100 µM (inactive) in the experiment with UO-31; > 100 µM (inactive) with SW-620; 84.1 µM (inactive) in the experiment with RXF 393; > 100 µM (inactive) with SF-539; 41.2 µM (inactive) with SNB-19; 39.8 µM (inactive) in the experiment on NCI-H522.
For `c1cc(-c2cn[nH]c2)cc(-c2cn[nH]c2)c1`, the GI50 in the experiment on KM12 is 41 µM (inactive); in the experiment with M14, 44.6 µM (inactive); in the experiment with NCI-H460 it was 41.4 µM (inactive); in the experiment with SNB-75 it was 6.76 µM (inactive); with OVCAR-4, 54 µM (inactive); with OVCAR-8 it was 36.9 µM (inactive). Besides, the GI50 in the experiment with SF-295 was 39.8 µM (inactive); in the experiment on A549, 20.1 µM (inactive); with HL-60, 30.9 µM (inactive); in the experiment with HOP-92, > 100 µM (inactive); with HOP-62 it was 17.8 µM (inactive); in the experiment on UO-31, 16 µM (inactive). Further, the GI50 in the experiment on SW-620 is 30.4 µM (inactive); in the experiment on RXF 393, 6.44 µM (inactive); in the experiment on SF-539, 17.9 µM (inactive); in the experiment on SNB-19, 61.1 µM (inactive); with NCI-H522, 27.2 µM (inactive).
As to `COc1ccc(/C=C2\SC(c3ccc(OC)cc3)N(NC(=O)Cc3ccccc3)C2=O)cc1` (stereo unspecified), the GI50 with KM12, with M14, in the experiment with Malme-3M, in the experiment with NCI-H460, in the experiment with SNB-75 and with OVCAR-4 was > 100 µM (inactive) each time. Further, the GI50 in the experiment with OVCAR-8 is > 100 µM (inactive); with SF-295, > 100 µM (inactive); with A549 it was > 100 µM (inactive); with HL-60, 94.8 µM (inactive); with HOP-92, > 100 µM (inactive); with HOP-62 it was > 100 µM (inactive). The GI50 was > 100 µM (inactive) in the experiment with UO-31; > 100 µM (inactive) in the experiment on SW-620; 63.7 µM (inactive) in the experiment on RXF 393; > 100 µM (inactive) in the experiment with SF-539; > 100 µM (inactive) with NCI-H522.
With `COc1ccc(/C=N/N=C(\N)NO)cc1F`, the GI50 with KM12 is 29.4 µM (inactive); with M14, 14.2 µM (inactive); with Malme-3M, 31 µM (inactive); with NCI-H460 it was 11.9 µM (inactive); in the experiment with SNB-75, 27.4 µM (inactive); in the experiment with OVCAR-4 it was 7.45 µM (inactive). Also, the GI50 in the experiment with OVCAR-8 is 25.9 µM (inactive); in the experiment with SF-295, 23 µM (inactive); in the experiment on A549 it was 14.3 µM (inactive); in the experiment on HL-60 it was 27.4 µM (inactive); in the experiment with HOP-92, 22.2 µM (inactive); in the experiment with HOP-62, 20.5 µM (inactive). Moreover, the GI50 in the experiment on UO-31 is 14 µM (inactive); in the experiment on SW-620 it was 41.2 µM (inactive); in the experiment on RXF 393, 38.2 µM (inactive); in the experiment with SF-539, 21.9 µM (inactive); in the experiment on SNB-19, 37.6 µM (inactive); in the experiment with NCI-H522 it was 22.1 µM (inactive).
Take `O=C(CC1=Nc2nnc(-c3nnc4n3C(=O)C(CC(=O)c3cccnc3)=N4)n2C1=O)c1cccnc1`: the GI50 with KM12, with M14, with Malme-3M, in the experiment on NCI-H460, with SNB-75 and with OVCAR-4 was > 100 µM (inactive) in each case. The GI50 in the experiment on SF-295, with A549, with HL-60, with HOP-92, in the experiment on HOP-62 and with UO-31 was > 100 µM (inactive) throughout. In addition, the GI50 with SW-620, with RXF 393, in the experiment with SF-539, with SNB-19 and with NCI-H522 was > 100 µM (inactive) in each case.
